Here are results for two molecules from patent US11951169B2, “Pharmaceutical preparation with curcuminoids nanoparticles and a method for producing the same” (AASTAR PTE LTD, priority 2019, dated 2024).

The series can be described thus: Dissolution test (USP apparatus Type II paddles) of capsules containing the gel liquid, HPLC analysis. The format is physicochemical. The conditions noted are these: capsule. The method, then: An Agilent 1260 Infinity HPLC system consists of a G1330B thermostat, a G1329B auto-injector, a G13150 diode array detector, a G1322A degasser and a high-pressure binary pump. Signal/Noise ratio of the chromatogram generated from this HPLC was used for qualitative and quantitative analyses in this study. The column used was an Angilent Poroshell 120 EC-C18 ([…], 2.7 am). The HPLC was run for 10 minutes at a column temperature of 35° C. under a flow rate of 0.3 ml/min with injection volume being 5 μl. The detection spectrum was set at 426 nm using an elusion medium comprising acetonitrile and 0.1% of aqueous formic acid in a volume ratio of 1:2.
2.0 g of NaCl and 7 ml of HCl were dissolved in 1 L of ultrapure water. The pH was adjusted to 1.2, by using 2M NaOH. 13.121 g of Na2HPO4 were dissolved in 1 L of ultrapure water. The pH was adjusted to 6.8.
A Vankel Varain VK 70000 Dissolution System consisting of VK7000 dissolution system, VK 750D heating circulator, system monitor, 6 Vankel vessels and apparatus Type II paddles, was used in the preparation of a dissolution sample from capsules containing the gel liquid.
The dissolution test was performed in compliance with United States Pharmacopoeia using apparatus Type II paddles. […] 6 capsules were added into 6 vessels respectively. […] 2 μl of the filtrate was injected into the HPLC system for analysis.
Further, 250 ml of pH 6.8 solution was added to the same vessel at 45 minutes and the pH was adjusted to 6.8 using 2M NaOH within 5 minutes. 1-2 ml of the dissolution sample was then collected after 60 minutes, 75 minutes and 120 minutes followed by filtering through a 0.45 μm membrane immediately. 2 μl of the filtrate was injected into the HPLC system for analysis.

SMILES strings stand for the structures.

Regarding `COc1cc(/C=C/C(=O)CC(=O)/C=C/c2ccc(O)c(OC)c2)ccc1O` [Curcumin, curcumin], the Weight dissolved is 590 ± 78 µg (pH 1.2, 10 min); 4250 ± 686 µg (pH 1.2, 15 min); 18908 ± 1819 µg (pH 1.2, 30 min); 24155 ± 1397 µg (pH 6.8, 45 min); 23746 ± 1347 µg (pH 6.8, 60 min); 23497 ± 1859 µg (pH 6.8, 75 min). This molecule also came in with a Weight dissolved (pH 6.8, 120 min) of 23937 ± 1826 µg.

Consider `COc1cc(/C=C/C(=O)CC(=O)/C=C/c2ccc(O)cc2)ccc1O` [DMC, demthoxycurcumin], for which the Weight dissolved is 195 ± 22 µg (pH 1.2, 15 min); 831 ± 87 µg (pH 1.2, 30 min); 745 ± 48 µg (pH 6.8, 45 min); 747 ± 45 µg (pH 6.8, 60 min); 739 ± 68 µg (pH 6.8, 75 min); 763 ± 69 µg (pH 6.8, 120 min).
